Paper PMC9926630, “Simultaneous attenuation of hyperglycemic memory-induced retinal, pulmonary, and glomerular dysfunctions by proinsulin C-peptide in diabetes” (BMC Medicine, 2023)

What was measured:
[1] = test system: human retinal endothelial cells (HRECs); experiment: Intracellular ROS levels in endothelial cells under HGM conditions; format: cell-based; settings: 30 mM glucose 3 days then 5.5 mM 3 days; 1 nM K9-C-peptide or K8 polypeptide, 0.5 µM Trolox, 50 µM cystamine, 1 nM human C-peptide; CellROX green and H2DCFDA, n = 4
Procedure: (§1) HRECs were purchased from the Applied Cell Biology Research Institute (Cell Systems, Kirkland, WA) and grown on 2% gelatin-coated plates in M199 medium supplemented with 20% FBS, 3 ng/mL basic fibroblast growth factor, 100 U/mL penicillin, and […] streptomycin in a humidified 5% CO2 incubator. Cells were authenticated by short tandem repeat profiling, and subconfluent cells after 7–9 passages were used in experiments. For the experiments, endothelial cells were incubated for 12 h in a low-serum medium supplemented with 2% fetal bovine serum, 0.1 ng/mL basic fibroblast growth factor, and antibiotics. The cells were then treated with 5.5 mM D-glucose for 6 days (normal glucose), 30 mM glucose for 6 days (high glucose), or 30 mM glucose for 3 days followed by 5.5 mM glucose for 3 days (HGM).
Intracellular ROS levels were measured in HRECs using CellROX™ green reagent and 2′,7′-dichlorodihydrofluorescein diacetate (Thermo Fisher Scientific, Waltham, MA, USA) as previously described. Labeled cells on coverslips were mounted in a perfusion chamber and analyzed by confocal microscopy (K1-Fluo). ROS levels were determined at the single-cell level for 30 randomly selected cells in three microscopic fields per experiment (n = 4).

TGase = experiment: In situ TGase activity in endothelial cells under HGM conditions; format: cell-based; settings: 30 mM glucose 3 days then 5.5 mM 3 days, 1 nM K9-C-peptide or K8 polypeptide, 0.5 µM Trolox, 50 µM cystamine, 1 nM human C-peptide, confocal, n = 4
Procedure: as §1
In situ TGase transamidating activity was measured by confocal microscopic assay as previously described. Briefly, HRECs were treated with 1 mmol/L 5-(biotinamido)pentylamine for 1 h and fixed with 3.7% formaldehyde for 30 min. The cells were then permeabilized with 0.2% Triton X-100 in PBS for 30 min and stained with FITC-conjugated streptavidin (1:200; MilliporeSigma, Burlington, MA, USA) for 1 h. The fluorescence intensities of single stained cells were determined by confocal microscopy (K1-Fluo) for 30 randomly selected cells in three microscopic fields per experiment (n = 4).

[2] = cited from earlier work
Procedure: However, C-peptide is limited in clinical applications by its short circulating half-life (approximately 30 min) and costly chemical synthesis. Recently, we prepared K9-C-peptide, a recombinant human C-peptide conjugated to ELP, to facilitate long-term systemic delivery of C-peptide. ELPs, derived from human elasti ...

[3] = test system: type 1 and type 2 diabetic mice; settings: cited from earlier work
From the text: The coincidence of diabetic complications, including DR, DPN, and DKD, has been reported in a number of clinical studies. Among the potential microvascular complications of diabetes, the coincidence of DR and DKD was reported to be high in epidemiological studies of both type 1 and type 2 diabetes. Co-occurrence of microvascular complications has also been observed in diabetic animal models including diabetic mice and rats. Moreover, increased mortality was reported in patients with both DR and systemic vascular diseases, including DKD [[ ...

[4] = Human insulin level in mouse serum (ELISA); format: in vivo; settings: HGM mice, insulin by osmotic pump 58.4 pmol/min/kg for 4 weeks, alone or with K8 polypeptide or K9-C-peptide, 10 weeks after streptozotocin, mean ± SD, n = 6
Procedure: (§2) One day after implantation of the osmotic pumps, human C-peptide was systemically supplemented by subcutaneous implantation of K9-C-peptide depots as previously described. […] The K9-C-peptide and K8 polypeptide were prepared by inverse transition cycling as previously described. Four weeks after the subcutaneous injections, sera and retinal, lung, and kidney tissues were obtained from the mice and analyzed. All animal experiments conformed to the Guide for the Care and Use of Laboratory Animals (National Institutes of Health; Bethesda, MD, USA) and were approved by the Institutional Animal Care and Use Ethics Committee of Kangwon National University (KW-201204–3).

[5] = test system: insulin-supplemented diabetic (HGM) mice; experiment: Body weight, blood glucose, water and food consumption of HGM mice; format: in vivo, mouse; settings: 4 weeks of treatment, insulin vs diabetic, K9-C-peptide/K8 on top of insulin, n = 6
Procedure: Six-week-old male C57BL/6 mice were obtained from DBL (EumSeong, Korea). […] Soo-Yul Kim (National Cancer Center, Goyang, Republic of Korea). Mice were maintained under pathogen-free conditions in a temperature-controlled room with a 12-h light/dark cycle. Diabetic mice were generated by single daily intraperitoneal injections of streptozotocin (50 mg/kg body weight; MilliporeSigma, Burlington, MA, USA) freshly prepared in 100 mM citrate buffer (pH 4.5) for 5 consecutive days, as previously described. The control group mice were injected with an equal volume of the citrate buffer. Mice with fasting blood glucose concentrations ≥ 19 mmol/L, polyuria, and glucosuria were considered diabetic. Mouse blood glucose levels and body weights were monitored weekly. […] One day after implantation of the osmotic pumps, human C-peptide was systemically supplemented by subcutaneous implantation of K9-C-peptide depots as previously described. […] The K9-C-peptide and K8 polypeptide were prepared by inverse transition cycling as previously described. Four weeks after the subcutaneous injections, sera and retinal, lung, and kidney tissues were obtained from the mice and analyzed. All animal experiments conformed to the Guide for the Care and Use of Laboratory Animals (National Institutes of Health; Bethesda, MD, USA) and were approved by the Institutional Animal Care and Use Ethics Committee of Kangwon National University (KW-201204–3).

[6] = Human C-peptide level in mouse serum (ELISA); format: in vivo; settings: HGM mice (STZ diabetic, insulin by osmotic pump 4 weeks), 4 weeks after s.c. K9-C-peptide 100 mg/kg or K8 polypeptide 83 mg/kg, injected twice, mean ± SD, n = 6
Procedure: as §2

## Cc1c(C)c2c(c(C)c1O)CCC(C)(C(=O)O)O2 (stereo not drawn) [Trolox]
[1]
  HGM-induced persistent ROS generation in HRECs: inhibited
TGase
  HGM-induced persistent TGase activation in HRECs: inhibited

## NCCSSCCN [cystamine]
[1]
  HGM-induced persistent ROS generation in HRECs: inhibited
TGase
  HGM-induced persistent TGase activation in HRECs: inhibited

## CC(C)C[C@H](NC(=O)[C@H](C)NC(=O)[C@H](CC(C)C)NC(=O)[C@@H]1CCCN1C(=O)[C@H](CCC(N)=O)NC(=O)[C@H](CC(C)C)NC(=O)[C@H](CO)NC(=O)CNC(=O)[C@H](C)NC(=O)CNC(=O)[C@@H]1CCCN1C(=O)CNC(=O)CNC(=O)CNC(=O)[C@H](CC(C)C)NC(=O)[C@H](CCC(=O)O)NC(=O)[C@@H](NC(=O)[C@H](CCC(N)=O)NC(=O)CNC(=O)[C@@H](NC(=O)[C@H](CCC(N)=O)NC(=O)[C@H](CC(C)C)NC(=O)[C@H](CC(=O)O)NC(=O)[C@H](CCC(=O)O)NC(=O)[C@H](C)NC(=O)[C@@H](N)CCC(=O)O)C(C)C)C(C)C)C(=O)N[C@@H](CCC(=O)O)C(=O)NCC(=O)N[C@@H](CO)C(=O)N[C@@H](CC(C)C)C(=O)N[C@@H](CCC(N)=O)C(=O)O [human C-peptide]
[2]
  Circulating half-life: approximately 30 min

## CN(C)c1ccc(O)c2c1C[C@H]1C[C@H]3[C@H](N(C)C)C(O)=C(C(N)=O)C(=O)[C@@]3(O)C(O)=C1C2=O [minocycline]
[3]; DR in type 1 and DKD in type 2 diabetic mice, respectively
  Effect on DR and DKD: partially ameliorated
[3]; type 1 and type 2 diabetic mice (either animal model)
  Effect on DPN: failed to improve

## insulin: human recombinant insulin delivered by subcutaneous osmotic pump (HGM group)
[4]
  Serum human insulin: in the physiological range
[5]
  Effect on blood glucose level (hyperglycemia): normalized
  Effect on body weight: normalized
  Effect on water and food consumption: normalized
[6]
  Serum C-peptide: not detectable
